Source: article PMC7156458, “Synthetic biology based construction of biological activity-related library of fungal decalin-containing diterpenoid pyrones” (Nature Communications, 2020)

Molecular target: Aβ42 (Homo sapiens, UniProt P05067)
Assay: Th-T (thioflavin-T) assay of Aβ42 aggregation
Type: biochemical
Conditions: for Th-T assay plate reading, mean of three wells (Supplementary Fig. 47): source data, Ab alone and No Ab as controls

Aβ42, sequence (P05067 672-713): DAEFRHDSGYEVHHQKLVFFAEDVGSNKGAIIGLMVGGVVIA

C=C1CC[C@H]2[C@]3(C)C[C@@H](C=C(C)C)O[C@H]3CC[C@]2(C)[C@@H]1Cc1c(OC)oc(CO)c(C)c1=O [Compound 17]
Th-T fluorescence, mean of three wells (Aβ42 aggregation time course, reading M117): 3.6742
Th-T fluorescence, mean of three wells (Aβ42 aggregation time course, reading M118): 3.663
Th-T fluorescence, mean of three wells (Aβ42 aggregation time course, reading M119): 3.652
Th-T fluorescence, mean of three wells (Aβ42 aggregation time course, reading M120): 3.6432
Th-T fluorescence, mean of three wells (Aβ42 aggregation time course, reading M121): 3.639
Th-T fluorescence, mean of three wells (Aβ42 aggregation time course, reading M122): 3.631
Th-T fluorescence, mean of three wells (Aβ42 aggregation time course, reading M123): 3.625
Th-T fluorescence, mean of three wells (Aβ42 aggregation time course, reading M124): 3.645
Th-T fluorescence, mean of three wells (Aβ42 aggregation time course, reading M125): 3.636
Th-T fluorescence, mean of three wells (Aβ42 aggregation time course, reading M126): 3.626
Th-T fluorescence, mean of three wells (Aβ42 aggregation time course, reading M127): 3.63
Th-T fluorescence, mean of three wells (Aβ42 aggregation time course, reading M128): 3.617
Th-T fluorescence, mean of three wells (Aβ42 aggregation time course, reading M129): 3.6361
Th-T fluorescence, mean of three wells (Aβ42 aggregation time course, reading M130): 3.633
Th-T fluorescence, mean of three wells (Aβ42 aggregation time course, reading M131): 3.621
Th-T fluorescence, mean of three wells (Aβ42 aggregation time course, reading M132): 3.621
Th-T fluorescence, mean of three wells (Aβ42 aggregation time course, reading M133): 3.612
Th-T fluorescence, mean of three wells (Aβ42 aggregation time course, reading M134): 3.622
Th-T fluorescence, mean of three wells (Aβ42 aggregation time course, reading M135): 3.594
Th-T fluorescence, mean of three wells (Aβ42 aggregation time course, reading M136): 3.604
Th-T fluorescence, mean of three wells (Supplementary Fig. 47, reading M137): 3.585
Th-T fluorescence, mean of three wells (Supplementary Fig. 47, reading M138): 3.583
Th-T fluorescence, mean of three wells (Supplementary Fig. 47, reading M139): 3.585
Th-T fluorescence, mean of three wells (Supplementary Fig. 47, reading M140): 3.575
Th-T fluorescence, mean of three wells (Supplementary Fig. 47, reading M141): 3.571
Th-T fluorescence, mean of three wells (Supplementary Fig. 47, reading M142): 3.57
Th-T fluorescence, mean of three wells (Supplementary Fig. 47, reading M143): 3.569
Th-T fluorescence, mean of three wells (Supplementary Fig. 47, reading M144): 3.562
Th-T fluorescence, mean of three wells (Supplementary Fig. 47, reading M145): 3.551
Th-T fluorescence, mean of three wells (Supplementary Fig. 47 source data, measurement M37 of time course): 3.249
Th-T fluorescence, mean of three wells (Supplementary Fig. 47 source data, measurement M38 of time course): 3.349
Th-T fluorescence, mean of three wells (Supplementary Fig. 47 source data, measurement M39 of time course): 3.376
Th-T fluorescence, mean of three wells (Supplementary Fig. 47 source data, measurement M40 of time course): 3.376
Th-T fluorescence, mean of three wells (Supplementary Fig. 47 source data, measurement M41 of time course): 3.367
Th-T fluorescence, mean of three wells (Supplementary Fig. 47 source data, measurement M42 of time course): 3.371
Th-T fluorescence, mean of three wells (Supplementary Fig. 47 source data, measurement M43 of time course): 3.406
Th-T fluorescence, mean of three wells (Supplementary Fig. 47 source data, measurement M44 of time course): 3.418
Th-T fluorescence, mean of three wells (Supplementary Fig. 47 source data, measurement M45 of time course): 3.459
Th-T fluorescence, mean of three wells (Supplementary Fig. 47 source data, measurement M46 of time course): 3.456
Th-T fluorescence, mean of three wells (Supplementary Fig. 47 source data, measurement M47 of time course): 3.465
Th-T fluorescence, mean of three wells (Supplementary Fig. 47 source data, measurement M48 of time course): 3.489
Th-T fluorescence, mean of three wells (Supplementary Fig. 47 source data, measurement M49 of time course): 3.497
Th-T fluorescence, mean of three wells (Supplementary Fig. 47 source data, measurement M50 of time course): 3.516
Th-T fluorescence, mean of three wells (Supplementary Fig. 47 source data, measurement M51 of time course): 3.557
Th-T fluorescence, mean of three wells (Supplementary Fig. 47 source data, measurement M52 of time course): 3.55
Th-T fluorescence, mean of three wells (Supplementary Fig. 47 source data, measurement M53 of time course): 3.554
Th-T fluorescence, mean of three wells (Supplementary Fig. 47 source data, measurement M54 of time course): 3.5687
Th-T fluorescence, mean of three wells (Supplementary Fig. 47 source data, measurement M55 of time course): 3.6
Th-T fluorescence, mean of three wells (Supplementary Fig. 47 source data, measurement M56 of time course): 3.63
Th-T assay plate reading, mean of three wells (Supplementary Fig. 47) (measurement M1): 0.2517
Th-T assay plate reading, mean of three wells (Supplementary Fig. 47) (measurement M2): 0.2528
Th-T assay plate reading, mean of three wells (Supplementary Fig. 47) (measurement M3): 0.2961
Th-T assay plate reading, mean of three wells (Supplementary Fig. 47) (measurement M4): 0.352
Th-T assay plate reading, mean of three wells (Supplementary Fig. 47) (measurement M5): 0.4245
Th-T assay plate reading, mean of three wells (Supplementary Fig. 47) (measurement M6): 0.4941
Th-T assay plate reading, mean of three wells (Supplementary Fig. 47) (measurement M7): 0.5517
Th-T assay plate reading, mean of three wells (Supplementary Fig. 47) (measurement M8): 0.6173
Th-T assay plate reading, mean of three wells (Supplementary Fig. 47) (measurement M9): 0.6978
Th-T assay plate reading, mean of three wells (Supplementary Fig. 47) (measurement M10): 0.9149
Th-T assay plate reading, mean of three wells (Supplementary Fig. 47) (measurement M11): 1.381
Th-T assay plate reading, mean of three wells (Supplementary Fig. 47) (measurement M12): 1.864
Th-T assay plate reading, mean of three wells (Supplementary Fig. 47) (measurement M13): 2.227
Th-T assay plate reading, mean of three wells (Supplementary Fig. 47) (measurement M14): 2.461
Th-T assay plate reading, mean of three wells (Supplementary Fig. 47) (measurement M15): 2.575
Th-T assay plate reading, mean of three wells (Supplementary Fig. 47) (measurement M16): 2.619
Th-T fluorescence, mean of three wells (reading M17, Supplementary Fig. 47 source data): 2.658
Th-T fluorescence, mean of three wells (reading M18, Supplementary Fig. 47 source data): 2.682
Th-T fluorescence, mean of three wells (reading M19, Supplementary Fig. 47 source data): 2.683
Th-T fluorescence, mean of three wells (reading M20, Supplementary Fig. 47 source data): 2.726
Th-T fluorescence, mean of three wells (reading M21, Supplementary Fig. 47 source data): 2.74
Th-T fluorescence, mean of three wells (reading M22, Supplementary Fig. 47 source data): 2.776
Th-T fluorescence, mean of three wells (reading M23, Supplementary Fig. 47 source data): 2.7833
Th-T fluorescence, mean of three wells (reading M24, Supplementary Fig. 47 source data): 2.808
Th-T fluorescence, mean of three wells (reading M25, Supplementary Fig. 47 source data): 2.851
Th-T fluorescence, mean of three wells (reading M26, Supplementary Fig. 47 source data): 2.893
Th-T fluorescence, mean of three wells (reading M27, Supplementary Fig. 47 source data): 2.879
Th-T fluorescence, mean of three wells (reading M28, Supplementary Fig. 47 source data): 2.908
Th-T fluorescence, mean of three wells (reading M29, Supplementary Fig. 47 source data): 2.914
Th-T fluorescence, mean of three wells (reading M30, Supplementary Fig. 47 source data): 2.944
Th-T fluorescence, mean of three wells (reading M31, Supplementary Fig. 47 source data): 2.96
Th-T fluorescence, mean of three wells (reading M32, Supplementary Fig. 47 source data): 3.025
Th-T fluorescence, mean of three wells (reading M33, Supplementary Fig. 47 source data): 3.031
Th-T fluorescence, mean of three wells (reading M34, Supplementary Fig. 47 source data): 3.078
Th-T fluorescence, mean of three wells (reading M35, Supplementary Fig. 47 source data): 3.103
Th-T fluorescence, mean of three wells (reading M36, Supplementary Fig. 47 source data): 3.12
Th-T fluorescence, mean of three wells (time course, reading M57): 3.617
Th-T fluorescence, mean of three wells (time course, reading M58): 3.628
Th-T fluorescence, mean of three wells (time course, reading M59): 3.637
Th-T fluorescence, mean of three wells (time course, reading M60): 3.637
Th-T fluorescence, mean of three wells (time course, reading M61): 3.653
Th-T fluorescence, mean of three wells (time course, reading M62): 3.653
Th-T fluorescence, mean of three wells (time course, reading M63): 3.655
Th-T fluorescence, mean of three wells (time course, reading M64): 3.667
Th-T fluorescence, mean of three wells (time course, reading M65): 3.662
Th-T fluorescence, mean of three wells (time course, reading M66): 3.684
Th-T fluorescence, mean of three wells (time course, reading M67): 3.7096
Th-T fluorescence, mean of three wells (time-course reading M97, Supplementary Fig. 47 source data): 3.715
Th-T fluorescence, mean of three wells (time-course reading M98, Supplementary Fig. 47 source data): 3.727
Th-T fluorescence, mean of three wells (time-course reading M99, Supplementary Fig. 47 source data): 3.7169
Th-T fluorescence, mean of three wells (time-course reading M100, Supplementary Fig. 47 source data): 3.715
Th-T fluorescence, mean of three wells (time-course reading M101, Supplementary Fig. 47 source data): 3.715
Th-T fluorescence, mean of three wells (time-course reading M102, Supplementary Fig. 47 source data): 3.7
Th-T fluorescence, mean of three wells (time-course reading M103, Supplementary Fig. 47 source data): 3.686
Th-T fluorescence, mean of three wells (time-course reading M104, Supplementary Fig. 47 source data): 3.695
Th-T fluorescence, mean of three wells (time-course reading M105, Supplementary Fig. 47 source data): 3.722
Th-T fluorescence, mean of three wells (time-course reading M106, Supplementary Fig. 47 source data): 3.704
Th-T fluorescence, mean of three wells (time-course reading M107, Supplementary Fig. 47 source data): 3.71
Th-T fluorescence, mean of three wells (time-course reading M108, Supplementary Fig. 47 source data): 3.718
Th-T fluorescence, mean of three wells (time-course reading M109, Supplementary Fig. 47 source data): 3.713
Th-T fluorescence, mean of three wells (time-course reading M110, Supplementary Fig. 47 source data): 3.7
Th-T fluorescence, mean of three wells (time-course reading M111, Supplementary Fig. 47 source data): 3.699
Th-T fluorescence, mean of three wells (time-course reading M112, Supplementary Fig. 47 source data): 3.698
Th-T fluorescence, mean of three wells (time-course reading M113, Supplementary Fig. 47 source data): 3.697
Th-T fluorescence, mean of three wells (time-course reading M114, Supplementary Fig. 47 source data): 3.674
Th-T fluorescence, mean of three wells (time-course reading M115, Supplementary Fig. 47 source data): 3.682
Th-T fluorescence, mean of three wells (time-course reading M116, Supplementary Fig. 47 source data): 3.669
